Tested on: TRPV 1 channels
Assay: Calcium assay (Fluo-4) in HEK-TRPV1 cells, dose response comparison
Format: cell-based
Details: Fluo-4 loaded, 1 mM external calcium chloride, 0-20 seconds baseline, compound added at 20 seconds, synthesized vs Sigma-sourced CBD (FIGS. 1A-1D)
Experimental: Molecular Pharmacology, 2016, volume 90, pages 300-308) HEK 293 cells with TRPV1 channels have been used as model systems (P. Geppetti and M. Trevisani, Activation and sensitisation of the vanilloid receptor: role in gastrointestinal inflammation and function, British Journal of Pharmacology, 2004, volume 141, pages 1313-1320);
HEK TRexTRPV1 cultured in DMEM, 10% Fetal Bovine Serum, 2 mM L-glutamine, 10 microgramg/ml Blasticidin (Calbiochem, San Diego Calif.), […] Zeocin (InvivoGen, San Diego Calif.), followed by inducing indicated transgene expression using 1 microgram/ml Tetracycline for 16-24 hrs. Comparisons made to untransfected HEK cells or HEKTRexTRPV1 with or without induction.
Cells washed and incubated with 0.2 micromolar Fluo-4 [54] for 30 minutes at 37° C. in a standard modified Ringer's solution of the following composition (in mM): NaCl 145, KCl 2.8, CsCl 10, CaCl2 10, MgCl2 2, glucose 10, Hepes-NaOH 10, pH 7.4, 330 mOsm. Cells transferred to 96-well plates at 50,000 cells/well and stimulated as indicated. Calcium signals acquired using a Flexstation 3 (Molecular Devices, Sunnydale, USA). Data are analyzed according to the methods in I. Díaz-Franulic, J. Caceres-Molina, R. V. Sepulveda, F. Gonzalez-Nilo, R. Latorre, Structure-Driven Pharmacology of Transient Receptor Potential Channel Vanilloid 1, Molecular Pharmacology, 2016, volume 90, pages 300-8. […]

With `C=C(C)[C@@H]1CCC(C)=C[C@H]1c1c(O)cc(CCCCC)cc1O` [cannabidiol (11, CBD), Cannabidiol] the ““biological finger print” and dose response on TRPV 1 channels” value was “the same “biological finger print” and dose response”.
